For five molecules, IC50 results are on record in US9302985B2, “Benzyl sulfonamide derivatives as RORc modulators” (Genentech, Inc., priority 2012, dated 2016).

pIC50: −log10 of the molar value.

RORc ligand binding domain, sequence (P51449 269-508, species assumed): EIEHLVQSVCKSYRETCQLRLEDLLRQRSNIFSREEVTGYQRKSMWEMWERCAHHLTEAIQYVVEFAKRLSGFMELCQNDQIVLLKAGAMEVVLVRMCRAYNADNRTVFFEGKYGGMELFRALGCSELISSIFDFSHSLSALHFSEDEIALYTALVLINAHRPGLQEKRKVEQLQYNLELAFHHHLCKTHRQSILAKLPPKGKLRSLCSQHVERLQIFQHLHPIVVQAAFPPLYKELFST

The test addresses RORc ligand binding domain (Homo sapiens (Human), UniProt P51449). Nature of the test: In vitro RORc Ligand Binding Assay. Particulars: displacement of 6 nM 25-[3H]hydroxycholesterol; 0.6 ug/mL RORc receptor; 3 h at 25° C. The method, then:
In vitro RORc Ligand Binding Assay
This assay was used to determine a compound's potency in inhibiting activity of RORc by determining, Kiapp, IC50, or percent inhibition values.
On day of the assay, 100 uL of 0.05% CHAPS (in deionized H2O) was added to all wells of the GFB Unifilter plate and allowed soak for 1 h. A wash buffer of 50 mM HEPES (pH 7.4), 150 mM NaCl, and 5 mM MgCl2 was prepared to wash the filter plate. To prepare an assay buffer, BSA was added to the wash buffer to reach 0.01% and DTT was added to reach 1 mM.
The 20× compound stocks were diluted in DMSO with Assay Buffer 4-fold to reach 5× the final test concentration in 25% DMSO (10 uL compound+30 uL Assay Buffer). Solutions were mixed by aspiration several times with a pipette set on 50 uL volume. For the assay, 10 uL of 5× compound stock solutions in 25% DMSO were added to the assay plate in duplicate.
For 25-hydroxycholesterol in 25% DMSO/75% Assay Buffer; 10 uL per well was used for NSB samples. Wells for Total Binding and No Receptor sample determination contained 10 uL of 25% DMSO/75% Assay Buffer per well.
Add 20 uL to all wells to reach 6 nM final concentration in the assay.
Stock receptor solution was diluted in assay buffer to obtain 1.5 ug/mL in Assay Buffer. 20 uL was added to all wells. For No Receptor samples, 20 uL Assay Buffer was substituted for receptor solution.
Assay plates were 96-well polypropylene V-bottom plates. 10 uL of 5× compound in 25% DMSO/75% Assay Buffer was added to Test wells. 10 uL of 25% DMSO/75% Assay Buffer was added to Total Binding or No Receptor wells. 10 uL of 5 uM 25-hydroxycholesterol in 25% DMSO/75% Assay Buffer was added to NSB wells. […] 20 uL of 1.5 ug/mL RORc receptor was added to wells (or 40 uL Assay Buffer to No R wells). Following addition to the wells, the plates were incubated 3 h at 25° C.
Using a Packard Filtermate Harvester, the filter plate were washed 4 times following transfer of the incubated samples. Plates were dry-filtered completely (2 h at 50° C. or overnight at room temperature). 50 uL Microscint 0 was added to all wells and read on Topcount protocol Inverted.
Final concentrations were as follows: 50 mM HEPES buffer (pH 7.4); 150 mM NaCl; 1 mM DTT; 5 mM MgCl2; 0.01% BSA; 5% DMSO; 0.6 ug/mL RORc receptor; 6 nM 25-[^3H]hydroxycholesterol. For NSB wells, 1 uM 25-hydroxycholesterol was also present.
The term pIC50 denotes the negative decadic logarithm of the IC50, by convention in mol/L. Read a low pIC50 as a high IC50. For the molecule `CC(C)CN(c1cccc(Cl)c1)S(=O)(=O)c1ccc(Oc2ccc(S(C)(=O)=O)cc2)cc1` [Compound 5, N-(3-Chloro-phenyl)-N-isobutyl-4-(4-mehanesulfonyl-phenoxy)-benzenesulfonamide], the pIC50 was 6.86.
With `CC(C)CN(Cc1ccccc1)S(=O)(=O)c1ccc(-c2ccc(C(N)=O)cc2)cc1` [Compound 7, 4′-(Benzyl-isobutyl-sulfamoyl)-biphenyl-4-carboxylic acid amide], the pIC50 was 6.91.
The same measure for `CC(C)CN(c1cccc(Cl)c1)S(=O)(=O)c1ccc(-c2ccc(S(N)(=O)=O)cc2)cc1` [Compound 14, Biphenyl-4,4′-disulfonic acid 4′-amide 4-[(3-chloro-phenyl)-isobutyl-amide]]: 6.99; for `CC(C)CN(c1cccc(Cl)c1)S(=O)(=O)c1ccc(-c2ccc(C(N)=O)cc2)cc1` [Compound 15, 4′-[(3-Chloro-phenyl)-isobutyl-sulfamoyl]-biphenyl-4-carboxylic acid amide]: 7.42.
The same measure for `CC(C)CN(c1ccccc1Cl)S(=O)(=O)c1ccc(-c2ccc(C(N)=O)cc2)cc1` [Compound 16, 4′-[(2-Chloro-phenyl)-isobutyl-sulfamoyl]-biphenyl-4-carboxylic acid amide]: 7.41.
